Test results taken from the NIST ThermoML archive (doi:10.1016/j.jct.2009.07.020).
Numbers after ± are expanded uncertainties.

Columns and labels:
[1] = 293.15 K, 101.33 kPa, Liquid; for speed of sound: Sing-around technique in a fixed-path interferometer; for mass density: Vibrating tube method
[2] = xn = mol fraction of the nth substance listed; details: 101 kPa, Liquid; for speed of sound: Sing-around technique in a fixed-path interferometer; for mass density: Vibrating tube method

CCCCCCCCCCO [decan-1-ol]
speed of sound [1]: 1396.4 ± 0.99 m/s | mass density [1]: 829.991 ± 0.14 kg/m3

CCCCCCCCCCO [decan-1-ol] + BrCCBr
speed of sound ([2]; 293.15 K, x2 = 0): 1396.4 ± 0.92 m/s | mass density ([2]; 293.15 K, x2 = 0): 829.991 ± 0.14 kg/m3 | speed of sound ([2]; 313.15 K, x2 = 0): 1328.7 ± 0.9 m/s | mass density ([2]; 313.15 K, x2 = 0): 816.264 ± 0.14 kg/m3

CCCCCCCCCCO [decan-1-ol] + ClC(Cl)=C(Cl)Cl
speed of sound ([2]; 293.15 K, x2 = 0): 1396.4 ± 0.92 m/s | mass density ([2]; 293.15 K, x2 = 0): 829.991 ± 0.14 kg/m3 | speed of sound ([2]; 313.15 K, x2 = 0): 1328.7 ± 0.9 m/s | mass density ([2]; 313.15 K, x2 = 0): 816.264 ± 0.14 kg/m3

CCCCCCCCCCO [decan-1-ol] + ClCCCl
speed of sound ([2]; 293.15 K, x2 = 0): 1396.4 ± 0.92 m/s | mass density ([2]; 293.15 K, x2 = 0): 829.991 ± 0.14 kg/m3 | speed of sound ([2]; 313.15 K, x2 = 0): 1328.7 ± 0.9 m/s | mass density ([2]; 313.15 K, x2 = 0): 816.264 ± 0.14 kg/m3

ClC(Cl)=C(Cl)Cl [tetrachloroethene]
speed of sound [1]: 1053.8 ± 0.9 m/s | mass density [1]: 1622.39 ± 0.42 kg/m3

ClC(Cl)=C(Cl)Cl [tetrachloroethene] + CCCCCCCCCCO
speed of sound ([2]; 293.15 K, x1 = 0.057): 1378.1 ± 0.92 m/s | speed of sound ([2]; 293.15 K, x1 = 0.1355): 1350.2 ± 0.91 m/s | speed of sound ([2]; 293.15 K, x1 = 0.2186): 1319.8 ± 0.9 m/s | speed of sound ([2]; 293.15 K, x1 = 0.2882): 1294.8 ± 0.89 m/s | speed of sound ([2]; 293.15 K, x1 = 0.3824): 1260.6 ± 0.88 m/s | speed of sound ([2]; 293.15 K, x1 = 0.4464): 1237.2 ± 0.87 m/s | speed of sound ([2]; 293.15 K, x1 = 0.499): 1218.5 ± 0.87 m/s | speed of sound ([2]; 293.15 K, x1 = 0.5849): 1187.2 ± 0.86 m/s | speed of sound ([2]; 293.15 K, x1 = 0.6417): 1166.5 ± 0.85 m/s | speed of sound ([2]; 293.15 K, x1 = 0.7175): 1139.4 ± 0.84 m/s | speed of sound ([2]; 293.15 K, x1 = 0.7786): 1117.7 ± 0.84 m/s | speed of sound ([2]; 293.15 K, x1 = 0.8527): 1092.4 ± 0.83 m/s | speed of sound ([2]; 293.15 K, x1 = 0.9003): 1077.6 ± 0.82 m/s | speed of sound ([2]; 293.15 K, x1 = 0.941): 1065.9 ± 0.82 m/s | speed of sound ([2]; 293.15 K, x1 = 1): 1053.8 ± 0.81 m/s | mass density ([2]; 293.15 K, x1 = 0.057): 854.607 ± 0.16 kg/m3 | mass density ([2]; 293.15 K, x1 = 0.1355): 890.745 ± 0.15 kg/m3 | mass density ([2]; 293.15 K, x1 = 0.2186): 932.241 ± 0.15 kg/m3 | mass density ([2]; 293.15 K, x1 = 0.2882): 969.944 ± 0.15 kg/m3 | mass density ([2]; 293.15 K, x1 = 0.3824): 1025.8 ± 0.16 kg/m3 | mass density ([2]; 293.15 K, x1 = 0.4464): 1067.31 ± 0.18 kg/m3 | mass density ([2]; 293.15 K, x1 = 0.499): 1103.86 ± 0.2 kg/m3 | mass density ([2]; 293.15 K, x1 = 0.5849): 1168.91 ± 0.23 kg/m3 | mass density ([2]; 293.15 K, x1 = 0.6417): 1216.01 ± 0.26 kg/m3 | mass density ([2]; 293.15 K, x1 = 0.7175): 1284.75 ± 0.3 kg/m3 | mass density ([2]; 293.15 K, x1 = 0.7786): 1345.73 ± 0.34 kg/m3 | mass density ([2]; 293.15 K, x1 = 0.8527): 1427.55 ± 0.38 kg/m3 | mass density ([2]; 293.15 K, x1 = 0.9003): 1485.31 ± 0.42 kg/m3 | mass density ([2]; 293.15 K, x1 = 0.941): 1538.45 ± 0.46 kg/m3 | mass density ([2]; 293.15 K, x1 = 1): 1622.39 ± 0.41 kg/m3 | speed of sound ([2]; 313.15 K, x1 = 0.057): 1310.7 ± 0.9 m/s | speed of sound ([2]; 313.15 K, x1 = 0.1355): 1283.1 ± 0.89 m/s | speed of sound ([2]; 313.15 K, x1 = 0.2186): 1252.8 ± 0.88 m/s | speed of sound ([2]; 313.15 K, x1 = 0.2882): 1228.4 ± 0.87 m/s | speed of sound ([2]; 313.15 K, x1 = 0.3824): 1195 ± 0.86 m/s | speed of sound ([2]; 313.15 K, x1 = 0.4464): 1172 ± 0.86 m/s | speed of sound ([2]; 313.15 K, x1 = 0.499): 1153.5 ± 0.85 m/s | speed of sound ([2]; 313.15 K, x1 = 0.5849): 1122.7 ± 0.84 m/s | speed of sound ([2]; 313.15 K, x1 = 0.6417): 1102.9 ± 0.83 m/s | speed of sound ([2]; 313.15 K, x1 = 0.7175): 1076 ± 0.83 m/s | speed of sound ([2]; 313.15 K, x1 = 0.7786): 1054.1 ± 0.82 m/s | speed of sound ([2]; 313.15 K, x1 = 0.8527): 1029.3 ± 0.81 m/s | speed of sound ([2]; 313.15 K, x1 = 0.9003): 1015 ± 0.81 m/s | speed of sound ([2]; 313.15 K, x1 = 0.941): 1005 ± 0.8 m/s | speed of sound ([2]; 313.15 K, x1 = 1): 993.96 ± 0.79 m/s | mass density ([2]; 313.15 K, x1 = 0.057): 840.425 ± 0.16 kg/m3 | mass density ([2]; 313.15 K, x1 = 0.1355): 875.885 ± 0.15 kg/m3 | mass density ([2]; 313.15 K, x1 = 0.2186): 916.585 ± 0.15 kg/m3 | mass density ([2]; 313.15 K, x1 = 0.2882): 953.338 ± 0.15 kg/m3 | mass density ([2]; 313.15 K, x1 = 0.3824): 1007.72 ± 0.15 kg/m3 | mass density ([2]; 313.15 K, x1 = 0.4464): 1048.17 ± 0.17 kg/m3 | mass density ([2]; 313.15 K, x1 = 0.499): 1083.69 ± 0.19 kg/m3 | mass density ([2]; 313.15 K, x1 = 0.5849): 1146.94 ± 0.22 kg/m3 | mass density ([2]; 313.15 K, x1 = 0.6417): 1192.81 ± 0.25 kg/m3 | mass density ([2]; 313.15 K, x1 = 0.7175): 1259.72 ± 0.28 kg/m3 | mass density ([2]; 313.15 K, x1 = 0.7786): 1319.21 ± 0.32 kg/m3 | mass density ([2]; 313.15 K, x1 = 0.8527): 1398.72 ± 0.36 kg/m3 | mass density ([2]; 313.15 K, x1 = 0.9003): 1455.08 ± 0.4 kg/m3 | mass density ([2]; 313.15 K, x1 = 0.941): 1507.24 ± 0.44 kg/m3 | mass density ([2]; 313.15 K, x1 = 1): 1588.98 ± 0.39 kg/m3
